≈ marks a conversion by molar mass, not a printed value. Where two headings read alike, the source gives them in different places.
Legend:
Format in all cases: cell-based
[1] = tested on: S. aureus SACPX1-SP25 MSSA - FQ resistant; assay: microbe, parasite or virus in culture; settings: Staphylococcus aureus, ATCC 29213 / MSSA, read-out: MIC S. aureus SACPX1-SP25 MSSA - FQ resistant (isogenic mutant of ATCC 29213)
[2] = tested on: Enterococcus faecium ATCC 19434; assay: MIC, E. faecium ATCC 19434; settings: ATCC19434, Table 2
[3] = tested on: Escherichia coli ATCC 25922; assay: MIC, broth microdilution, E. coli ATCC 25922; settings: ATCC25922, Table 1, wild type strain
[4] = tested on: human hepatic cell line (HepG2 ATCC HB-8065); assay: Human cell viability assay (CellTiter-Glo), HepG2; settings: HepG2, 24 h incubation, tested over 1-128 μg/mL, read-out: IC50 values against HepG2
Procedure: Compounds are assessed for potential non-specific cytotoxic effects against a human hepatic cell line (HepG2 ATCC HB-8065). HepG2 cells are seeded at 20,000 cells/well in 96-well microtitre plates in minimal essential medium (MEM) supplemented with a final concentration of 10% FBS and 1 mM sodium pyruvate. After 24 h compound dilutions are prepared in Dulbecco's minimum essential media (DMEM) supplemented with final concentrations of 0.001% FBS, 0.3% bovine albumin and 0.02% HEPES and added to cells. Compounds are tested in two-fold serial dilutions over a final concentration range of 1-128 μg/mL in a final DMSO concentration of 1% vol/vol. Chlorpromazine is used as a positive control. Cells are incubated with compound at 37° C. and 5% CO2 for a further 24 h, after which time the CellTiter-Glo reagent (Promega) is added. Luminescence is measured on a BMG Omega plate reader. Data are analysed using GraphPad Prism software to determine the concentration of compound that inhibits cell viability by fifty percent (IC50).

[5] = tested on: S. aureus NRS482 MRSA FQ resistant; assay: MIC, S. aureus NRS482; settings: Staphylococcus aureus; Table 2
[6] = tested on: Haemophilus influenzae ATCC 49247; assay: MIC, H. influenzae ATCC 49247; settings: ATCC49247, Table 4
[7] = tested on: Staphylococcus aureus ATCC 29213; assay: MIC, broth microdilution, S. aureus ATCC 29213
[8] = tested on: S. aureus NRS127 MRSA LZD resistant; assay: MIC, S. aureus NRS127; settings: Staphylococcus aureus; Table 2
[9] = tested on: S. aureus NRS1 MRSA; assay: MIC, S. aureus NRS1; settings: Staphylococcus aureus; Table 2; read-out: MIC S. aureus NRS1 MRSA AMG & TET resistant
[10] = tested on: S. aureus (MRSA) ATCC 43300; assay: MIC, S. aureus ATCC 43300; settings: Staphylococcus aureus; Table 2; read-out: MIC S. aureus (MRSA) ATCC 43300 Heterogeneous MRSA strain
[11] = tested on: S. aureus VRS1 MRSA VAN resistant; assay: MIC, S. aureus VRS1; settings: Staphylococcus aureus, Table 2
[12] = ATCC29213, Table 1, wild type strain, read-out: MIC S. aureus ATCC 29213
[13] = ATCC 29213 / MSSA, Table 2, read-out: MIC S. aureus (MSSA) ATCC 29213 CLSI control strain

SMILES | MIC [1] | MIC [2] | MIC [3] | IC50 [4] | MIC [5] | MIC [6] | MIC [7, 12] | MIC [7, 13] | MIC [8] | MIC [9] | MIC [10] | MIC [11]
CCn1c(=O)c2ncoc2c2ccc(-c3cc(F)c(N)cc3F)c(C)c21 [Compound 2, 7-(4-amino-2,5-difluoro-phenyl)-5-ethyl-6-methyl-oxazolo[4,5-c]quinolin-4-one] | 1 to 10 µg/mL (≈ 2.81 to 28.1 µM) | > 100 µg/mL | > 100 µg/mL | 10 to 100 µg/mL (≈ 28.1 to 281 µM) | 1 to 10 µg/mL (≈ 2.81 to 28.1 µM) | 10 to 100 µg/mL (≈ 28.1 to 281 µM) | 1 to 10 µg/mL (≈ 2.81 to 28.1 µM) | 1 to 10 µg/mL (≈ 2.81 to 28.1 µM) |  |  |  | 
Cc1c(-c2ccc3[nH]cnc3c2)ccc2c3ocnc3c(=O)n(C3CC3)c12 [Compound 15, 7-(1H-benzimidazol-5-yl)-5-cyclopropyl-6-methyl-oxazolo[4,5-c]quinolin-4-one] |  |  | 10 to 100 µg/mL (≈ 28.1 to 281 µM) |  | < 1 µg/mL | 1 to 10 µg/mL (≈ 2.81 to 28.1 µM) | < 1 µg/mL | < 1 µg/mL | < 1 µg/mL |  |  | 
CCOC(=O)CNC(=O)c1ccc(-c2ccc3c4ocnc4c(=O)n(C4CC4)c3c2C)cc1 [Compound 30, ethyl-2-[{4-(5-cyclopropyl-6-methyl-4-oxo-oxazolo[4,5-c]quinolin-7-yl)benzoyl}amino]acetate] |  | > 100 µg/mL | > 100 µg/mL | 10 to 100 µg/mL (≈ 22.4 to 224 µM) | 1 to 10 µg/mL (≈ 2.24 to 22.4 µM) | 1 to 10 µg/mL (≈ 2.24 to 22.4 µM) | 1 to 10 µg/mL (≈ 2.24 to 22.4 µM) | 1 to 10 µg/mL (≈ 2.24 to 22.4 µM) | 1 to 10 µg/mL (≈ 2.24 to 22.4 µM) | 1 to 10 µg/mL (≈ 2.24 to 22.4 µM) | 1 to 10 µg/mL (≈ 2.24 to 22.4 µM) | 1 to 10 µg/mL (≈ 2.24 to 22.4 µM)
Cc1c(-c2ccc(C(=O)NCC(=O)O)cc2)ccc2c3ocnc3c(=O)n(C3CC3)c12 [Compound 31, 2-[{4-(5-cyclopropyl-6-methyl-4-oxo-oxazolo[4,5-c]quinolin-7-yl)benzoyl}amino]acetic acid] |  |  | > 100 µg/mL |  | > 100 µg/mL | > 100 µg/mL | > 100 µg/mL | > 100 µg/mL |  |  |  | 
Cc1nc2c(=O)n(C3CC3)c3c(C)c(-c4cc(F)c(C(N)=O)cc4F)ccc3c2o1 [Compound 35, 4-(5-cyclopropyl-2,6-dimethyl-4-oxo-oxazolo[4,5-c]quinolin-7-yl)-2,5-difluoro-benzamide] |  | 10 to 100 µg/mL (≈ 24.4 to 244 µM) | 1 to 10 µg/mL (≈ 2.44 to 24.4 µM) | 10 to 100 µg/mL (≈ 24.4 to 244 µM) | 1 to 10 µg/mL (≈ 2.44 to 24.4 µM) | 1 to 10 µg/mL (≈ 2.44 to 24.4 µM) | < 1 µg/mL | < 1 µg/mL |  | 1 to 10 µg/mL (≈ 2.44 to 24.4 µM) | < 1 µg/mL | 
Cc1c(-c2ccc(N)c(F)c2)ccc2c3ocnc3c(=O)n(C3CC3)c12 [Compound 38, 7-(4-amino-3-fluorophenyl)-5-cyclopropyl-6-methyl-oxazolo[4,5-c]quinolin-4-one] | < 1 µg/mL | > 100 µg/mL | 1 to 10 µg/mL (≈ 2.86 to 28.6 µM) | > 100 µg/mL | 1 to 10 µg/mL (≈ 2.86 to 28.6 µM) | < 1 µg/mL | < 1 µg/mL | < 1 µg/mL |  |  |  | 
Cc1nc2c(=O)n(C3CC3)c3cc(N4CCC(N)CC4)c(F)cc3c2o1 [Compound 49, 7-(4-amino-1-piperidyl)-5-cyclopropyl-8-fluoro-2-methyl-oxazolo[4,5-c]quinolin-4-one] |  | 10 to 100 µg/mL (≈ 28.1 to 281 µM) | 1 to 10 µg/mL (≈ 2.81 to 28.1 µM) | 10 to 100 µg/mL (≈ 28.1 to 281 µM) | 10 to 100 µg/mL (≈ 28.1 to 281 µM) | 1 to 10 µg/mL (≈ 2.81 to 28.1 µM) | 1 to 10 µg/mL (≈ 2.81 to 28.1 µM) | 1 to 10 µg/mL (≈ 2.81 to 28.1 µM) | 10 to 100 µg/mL (≈ 28.1 to 281 µM) | 10 to 100 µg/mL (≈ 28.1 to 281 µM) | 1 to 10 µg/mL (≈ 2.81 to 28.1 µM) | > 100 µg/mL
O=c1c2ncoc2c2cc(F)c(-c3ccc(O)cc3)cc2n1C1CC1 [Compound 64, 5-cyclopropyl-8-fluoro-7-(4-hydroxyphenyl)oxazolo[4,5-c]quinolin-4-one] |  | > 100 µg/mL | 10 to 100 µg/mL (≈ 29.7 to 297 µM) | 10 to 100 µg/mL (≈ 29.7 to 297 µM) |  | < 1 µg/mL | < 1 µg/mL | < 1 µg/mL |  |  |  | 
Nc1ccc(-c2cc3c(cc2F)c2ocnc2c(=O)n3C2CC2)cc1F [Compound 71, 7-(4-amino-3-fluoro-phenyl)-5-cyclopropyl-8-fluoro-oxazolo[4,5-c]quinolin-4-one] |  | 10 to 100 µg/mL (≈ 28.3 to 283 µM) | 1 to 10 µg/mL (≈ 2.83 to 28.3 µM) | > 100 µg/mL |  | < 1 µg/mL | 1 to 10 µg/mL (≈ 2.83 to 28.3 µM) | 1 to 10 µg/mL (≈ 2.83 to 28.3 µM) |  |  |  | 
Cc1nc2c(=O)n(C3CC3)c3cc(-c4ccc(CN)c(F)c4)c(F)cc3c2o1 [Compound 76, 7-[4-(aminomethyl)-3-fluoro-phenyl]-5-cyclopropyl-8-fluoro-2-methyl-oxazolo[4,5-c]quinolin-4-one] |  | 10 to 100 µg/mL (≈ 26.2 to 262 µM) | 1 to 10 µg/mL (≈ 2.62 to 26.2 µM) |  | 1 to 10 µg/mL (≈ 2.62 to 26.2 µM) | 1 to 10 µg/mL (≈ 2.62 to 26.2 µM) | < 1 µg/mL | < 1 µg/mL | 1 to 10 µg/mL (≈ 2.62 to 26.2 µM) | 1 to 10 µg/mL (≈ 2.62 to 26.2 µM) | < 1 µg/mL | 10 to 100 µg/mL (≈ 26.2 to 262 µM)
Cc1nc2c(=O)n(C3CC3)c3cc(-c4cc(F)c(N)cc4F)c(F)cc3c2o1 [Compound 79, 7-(4-amino-2,5-difluoro-phenyl)-5-cyclopropyl-8-fluoro-2-methyl-oxazolo[4,5-c]quinolin-4-one] |  | > 100 µg/mL | 10 to 100 µg/mL (≈ 26 to 260 µM) | 10 to 100 µg/mL (≈ 26 to 260 µM) |  | < 1 µg/mL | < 1 µg/mL | < 1 µg/mL |  |  |  | 
NC1CCN(c2nc3c(cc2F)c2ocnc2c(=O)n3C2CC2)C1 (stereo not shown) [Compound 80, 7-(3-aminopyrrolidin-1-yl)-5-cyclopropyl-8-fluoro-oxazolo[4,5-c][1,8]naphthyridin-4-one] | 10 to 100 µg/mL (≈ 30.4 to 304 µM) | 10 to 100 µg/mL (≈ 30.4 to 304 µM) | 1 to 10 µg/mL (≈ 3.04 to 30.4 µM) |  |  | 10 to 100 µg/mL (≈ 30.4 to 304 µM) | 1 to 10 µg/mL (≈ 3.04 to 30.4 µM) | 1 to 10 µg/mL (≈ 3.04 to 30.4 µM) |  |  |  | 
NCC1CCN(c2nc3c(cc2F)c2ocnc2c(=O)n3C2CC2)C1 (stereo not shown) [Compound 81, 7-[3-(aminomethyl)pyrrolidin-1-yl]-5-cyclopropyl-8-fluoro-oxazolo[4,5-c][1,8]naphthyridin-4-one] |  | > 100 µg/mL | 1 to 10 µg/mL (≈ 2.91 to 29.1 µM) | > 100 µg/mL |  | 1 to 10 µg/mL (≈ 2.91 to 29.1 µM) | 1 to 10 µg/mL (≈ 2.91 to 29.1 µM) | 1 to 10 µg/mL (≈ 2.91 to 29.1 µM) |  |  |  | 
C[C@H]1COc2c(-c3ccc(C(N)=O)cc3)ccc3c4ocnc4c(=O)n1c23 [Compound 96, 4-[(2S)-2-methyl-15-oxo-4,11-dioxa-1,13-diazatetracyclo[7.6.1.0^5,^16.0^10,^14]hexadeca-5(16),6,8,10(14),12-pentaen-6-yl]benzamide] |  | 10 to 100 µg/mL (≈ 27.7 to 277 µM) | 10 to 100 µg/mL (≈ 27.7 to 277 µM) | 10 to 100 µg/mL (≈ 27.7 to 277 µM) | 1 to 10 µg/mL (≈ 2.77 to 27.7 µM) | 1 to 10 µg/mL (≈ 2.77 to 27.7 µM) | 1 to 10 µg/mL (≈ 2.77 to 27.7 µM) | 1 to 10 µg/mL (≈ 2.77 to 27.7 µM) | 1 to 10 µg/mL (≈ 2.77 to 27.7 µM) | 1 to 10 µg/mL (≈ 2.77 to 27.7 µM) | 1 to 10 µg/mL (≈ 2.77 to 27.7 µM) | 1 to 10 µg/mL (≈ 2.77 to 27.7 µM)
CC(=O)OCc1nc2c(=O)n(C3CC3)c3c(C)c(-c4cc(F)c(N)cc4F)ccc3c2o1 [Compound 98, [7-(4-amino-2,5-difluorophenyl)-5-cyclopropyl-6-methyl-4-oxo-4H,5H-[1,3]oxazolo[4,5-c]quinolin-2-yl]methyl acetate] |  |  | 1 to 10 µg/mL | > 100 µg/mL | < 1 µg/mL | 1 to 10 µg/mL | < 1 µg/mL | < 1 µg/mL |  |  |  | 
Cc1c(-c2cc(F)c(N)cc2F)ccc2c3oc(CO)nc3c(=O)n(C3CC3)c12 [Compound 99, 7-(4-amino-2,5-difluorophenyl)-5-cyclopropyl-2-(hydroxymethyl)-6-methyloxazolo[4,5-c]quinolin-4-one] |  |  | 1 to 10 µg/mL (≈ 2.52 to 25.2 µM) |  | < 1 µg/mL | < 1 µg/mL | < 1 µg/mL | < 1 µg/mL | 1 to 10 µg/mL (≈ 2.52 to 25.2 µM) | 1 to 10 µg/mL (≈ 2.52 to 25.2 µM) | < 1 µg/mL | 1 to 10 µg/mL (≈ 2.52 to 25.2 µM)
Cc1c(-c2cc(F)c(N)cc2F)ccc2c3oc(CN(C)C)nc3c(=O)n(C3CC3)c12 [Compound 101, 7-(4-amino-2,5-difluoro-phenyl)-5-cyclopropyl-2-[(dimethylamino)methyl]-6-methyl-oxazolo[4,5-c]quinolin-4-one] |  |  | 10 to 100 µg/mL (≈ 23.6 to 236 µM) | 10 to 100 µg/mL (≈ 23.6 to 236 µM) | 1 to 10 µg/mL (≈ 2.36 to 23.6 µM) | 1 to 10 µg/mL (≈ 2.36 to 23.6 µM) | < 1 µg/mL | < 1 µg/mL |  |  |  | 
